Measurements as given in ChEMBL document CHEMBL3507680, “University of Dundee, Gates Library screen for HepG2 cell viability”.

Assay: Human HepG2 cell viability assay in 384 well format
Format: toxicity, cell-based
Set-up: dose 125 nL, time 70.5 hour; cytotoxicity at 70.5 h: concentration not given beside the values
Details: HepG2 cells, read-out: Inhibition
For `Cc1cccc(CN2CCc3nnc(CN(C)C)n3CC2)n1`, the cytotoxicity at 70.5 h was -10.7%. In the case of `O=C1NCCCc2[nH]c(C3CCCN(C(=O)C4CC4)C3)nc21` (centres undefined), the cytotoxicity at 70.5 h is reported as -10.4%. `C[C@@H]1C[C@H]2CN(C(=O)C3=CCCCC3)C[C@H]2O1` gave a cytotoxicity at 70.5 h of -10.1%. Compound `CO[C@H]1CCN(Cc2ccoc2)C[C@@H]1Cc1ccccc1` has a cytotoxicity at 70.5 h of 20.5%. `CCN(CC)C(=O)Cn1ccc2cc(NC(C)=O)ccc21` gave a cytotoxicity at 70.5 h of -3.27%. Compound `Cc1ccc(C)c(Oc2ccc(CNC(=O)C3CCS(=O)(=O)C3)cn2)c1` (centres undefined) has a cytotoxicity at 70.5 h of -10.1%. Work on `CC(C)c1cc(C(=O)N2CCN(Cc3ccsc3)CC2)n[nH]1` yielded a cytotoxicity at 70.5 h of -9.01%. Compound `O=C(CN1CCc2ccccc21)NCc1ccc(Cl)cc1` has a cytotoxicity at 70.5 h of 3.34%. `Cc1nccn1-c1cccc(C2CCCN2)n1` (centres undefined) gave a cytotoxicity at 70.5 h of -13.4%. With `CC(O)(CN1CCN(CCO)CC1)c1cccc(C(F)(F)F)c1` (centres undefined) the cytotoxicity at 70.5 h was 14.6%. `Cc1cccc(C(=O)NCc2ccc(OCCN(C)C)cc2)c1C` gave a cytotoxicity at 70.5 h of -6.51%. `CC(C)CNC(=O)[C@H]1C[C@@H]2CN(C(=O)Nc3ccc(F)cc3)C[C@H]1O2` showed a cytotoxicity at 70.5 h of -26.4%. Work on `CCC(CO)N(Cc1cccs1)C(=O)CNS(=O)(=O)c1cccs1` (centres undefined) yielded a cytotoxicity at 70.5 h of -4.61%. For `COc1ccc(CN2CCN(Cc3nccn3C)C(C)C2)cc1F` (centres undefined), the cytotoxicity at 70.5 h was -9.42%. Compound `Cc1cc(C)n(CC2CCCN2C(=O)c2ccc3[nH]cnc3c2)n1` (centres undefined) has a cytotoxicity at 70.5 h of -9%. With `CC1(C)CC(N(Cc2cccnc2)Cc2cccc(F)c2)CC(C)(C)N1` the cytotoxicity at 70.5 h was 2.01%. `CSCC[C@@H](CO)Nc1ccc(-c2nc(-c3ccccc3C)no2)cn1` gave a cytotoxicity at 70.5 h of -6.4%. `Cn1ccnc1CN1CCCC1c1noc(C2CC2)n1` (centres undefined) gave a cytotoxicity at 70.5 h of 1.39%. Work on `O=C(CC1CCCC1)N1CCCC1c1ccc(CN2CCOCC2)cn1` (centres undefined) yielded a cytotoxicity at 70.5 h of -0.855%. With `CC(C)c1ncc(CN2CCC(O)(c3ccccc3F)CC2)cn1` the cytotoxicity at 70.5 h was 2.86%. `Nc1nc(CCC(=O)N2C[C@@H](CN3CCCC3)C[C@H](CO)C2)n[nH]1` showed a cytotoxicity at 70.5 h of -6.67%. For `Cc1cnn(C2CCN(Cc3ccccc3)C2)c1N` (centres undefined), the cytotoxicity at 70.5 h was 16%. In the case of `O=C(c1cc(Cl)cc(Cl)c1)N1CCN(c2nccs2)CC1`, the cytotoxicity at 70.5 h is reported as -1.02%. For `CC(C)N(CCCNC(=O)C1CC1)S(C)(=O)=O`, the cytotoxicity at 70.5 h was -4.77%. Compound `CCc1ccc(C2CCCCCN2C(=O)CNC(=O)C2CC2)o1` (centres undefined) has a cytotoxicity at 70.5 h of -1.46%. For `Cn1cc(C(=O)N[C@@H]2CN(CC3CCOCC3)[C@@H]3CCCO[C@@H]32)cn1`, the cytotoxicity at 70.5 h was -7.22%. Compound `Cc1cc(C(=O)N2C[C@H]3CC[C@@H]2CN(C(=O)c2ccncc2)C3)cs1` has a cytotoxicity at 70.5 h of -1.99%. Work on `COC(=O)c1cccn1C1CCN(C(=O)c2ccc(C)cc2O)CC1` yielded a cytotoxicity at 70.5 h of -8.93%. `CC(NC(=O)N1CCC(n2cncn2)CC1)c1ccc(F)cc1F` (centres undefined) gave a cytotoxicity at 70.5 h of -13.6%. `c1cncc(CNCc2cccs2)c1` showed a cytotoxicity at 70.5 h of 26%. `O=C(c1ccc2[nH]ccc2c1)N1CCn2cc(CN3CCCC3)nc2C1` showed a cytotoxicity at 70.5 h of -13.7%. `Cc1cc(CN2CCC(CNC(=O)c3cnc(C)nc3C)C2)[nH]n1` (centres undefined) gave a cytotoxicity at 70.5 h of 7.59%. Work on `CCc1noc(CN(CC(=O)N2CCCCC2)c2ccc(C)cc2)n1` yielded a cytotoxicity at 70.5 h of -1.63%. Work on `CCc1noc(CC)c1CNC(=O)Nc1cccc(C(=O)N(C)C)c1` yielded a cytotoxicity at 70.5 h of -1.22%. With `Cc1cc2ccccc2n1CC(=O)Nc1ccnn1CC1CCOC1` (centres undefined) the cytotoxicity at 70.5 h was -14.7%. Compound `Cc1nc2cc(=O)[nH]n2c(C)c1CC(=O)NCc1ccc(C#N)cc1` has a cytotoxicity at 70.5 h of -0.462%. `CC1CCC(O)(CN2CCN(CCNC(=O)C3CCC3)CC2)CC1` (centres undefined) showed a cytotoxicity at 70.5 h of -14.6%. Work on `c1cc(C2CCN(Cc3nc(-c4ccsc4)no3)CC2)[nH]n1` yielded a cytotoxicity at 70.5 h of -3.49%. Compound `Cc1nc(N(C)C)ncc1C(=O)NCCCn1nccc1C1CC1` has a cytotoxicity at 70.5 h of 6.49%. `Fc1cccc2c1CCC2NCc1ccc(N2CCOCC2)cc1` (centres undefined) showed a cytotoxicity at 70.5 h of 1.27%. Compound `Cc1cccn2c(NC(C)(C)C)c(C3CCN(C(=O)C4CC4)CC3)nc12` has a cytotoxicity at 70.5 h of -6.96%. In the case of `COCCNC(=O)C[C@@H]1COC[C@H]2CN(Cc3cccnc3)C[C@@H]12`, the cytotoxicity at 70.5 h is reported as -0.897%. `Fc1cnc(N2CCCn3c(nnc3Cn3cccc3)C2)nc1` gave a cytotoxicity at 70.5 h of 27.5%. Compound `Cc1nc(Nc2nnc(C)s2)cc(C2CCCN2S(C)(=O)=O)n1` (centres undefined) has a cytotoxicity at 70.5 h of -1.79%.
